Laboratory results reported in the supplement of paper PMC10307832.

How the values were obtained:
Test in all cases: relative viability (nuclei count vs DMSO), 5 days (fraction); higher = more cells survive
Imatinib + Phenformin = compound: Cc1ccc(NC(=O)c2ccc(CN3CCN(C)CC3)cc2)cc1Nc1nccc(-c2cccnc2)n1 [Imatinib] + N=C(N)NC(=N)NCCc1ccccc1 [Phenformin] (partner 250 µM)
In short: (§1)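 Relative viability equals treated-well nuclei counts divided by vehicle-well nuclei counts. Counts came from 4× images of lung cancer cell lines grown in 1536-well plates for 5 days after pin-tool dosing on the day after seeding. Dosing used one drug alone or a fixed anchor-drug dose plus five library-drug doses (not always all listed) in √10 steps, and values are medians of duplicate plates.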

Imatinib + Linsitinib = compound: Cc1ccc(NC(=O)c2ccc(CN3CCN(C)CC3)cc2)cc1Nc1nccc(-c2cccnc2)n1 [Imatinib] + C[C@]1(O)C[C@@H](c2nc(-c3ccc4ccc(-c5ccccc5)nc4c3)c3c(N)nccn32)C1 [Linsitinib] (partner 1 µM)
In short: as §1

Imatinib + Decitabine = compound: Cc1ccc(NC(=O)c2ccc(CN3CCN(C)CC3)cc2)cc1Nc1nccc(-c2cccnc2)n1 [Imatinib] + Nc1ncn([C@H]2C[C@H](O)[C@@H](CO)O2)c(=O)n1 [Decitabine] (partner 2 µM)
In short: as §1

Imatinib + Pictilisib = compound: Cc1ccc(NC(=O)c2ccc(CN3CCN(C)CC3)cc2)cc1Nc1nccc(-c2cccnc2)n1 [Imatinib] + CS(=O)(=O)N1CCN(Cc2cc3nc(-c4cccc5[nH]ncc45)nc(N4CCOCC4)c3s2)CC1 [Pictilisib] (partner 1 µM)
In short: as §1

Imatinib + Alpelisib = compound: Cc1ccc(NC(=O)c2ccc(CN3CCN(C)CC3)cc2)cc1Nc1nccc(-c2cccnc2)n1 [Imatinib] + Cc1nc(NC(=O)N2CCC[C@H]2C(N)=O)sc1-c1ccnc(C(C)(C)C(F)(F)F)c1 [Alpelisib] (partner 2 µM)
In short: as §1

Imatinib + Navitoclax = compound: Cc1ccc(NC(=O)c2ccc(CN3CCN(C)CC3)cc2)cc1Nc1nccc(-c2cccnc2)n1 [Imatinib] + CC1(C)CCC(c2ccc(Cl)cc2)=C(CN2CCN(c3ccc(C(=O)NS(=O)(=O)c4ccc(N[C@H](CCN5CCOCC5)CSc5ccccc5)c(S(=O)(=O)C(F)(F)F)c4)cc3)CC2)C1 [Navitoclax] (partner 0.5 µM)
In short: as §1

Imatinib + Lapatinib = compound: Cc1ccc(NC(=O)c2ccc(CN3CCN(C)CC3)cc2)cc1Nc1nccc(-c2cccnc2)n1 [Imatinib] + CS(=O)(=O)CCNCc1ccc(-c2ccc3ncnc(Nc4ccc(OCc5cccc(F)c5)c(Cl)c4)c3c2)o1 [Lapatinib] (partner 2 µM)
In short: as §1

Imatinib + Olaparib = compound: Cc1ccc(NC(=O)c2ccc(CN3CCN(C)CC3)cc2)cc1Nc1nccc(-c2cccnc2)n1 [Imatinib] + O=C(c1cc(Cc2n[nH]c(=O)c3ccccc23)ccc1F)N1CCN(C(=O)C2CC2)CC1 [Olaparib] (partner 8 µM)
In short: as §1

Imatinib = compound: Cc1ccc(NC(=O)c2ccc(CN3CCN(C)CC3)cc2)cc1Nc1nccc(-c2cccnc2)n1 [Imatinib]
In short: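 Nuclei counted with MetaXpress define viability as the ratio of treated to vehicle wells, given as a median across plates. The lung cancer cell lines were in 1536-well plates, pinned with five √10-spaced library-drug doses and imaged at 4× after 5 days and Hoechst staining. Plates passed with control CV below 25% and at least one doubling.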

Imatinib + Foretinib = compound: Cc1ccc(NC(=O)c2ccc(CN3CCN(C)CC3)cc2)cc1Nc1nccc(-c2cccnc2)n1 [Imatinib] + COc1cc2c(Oc3ccc(NC(=O)C4(C(=O)Nc5ccc(F)cc5)CC4)cc3F)ccnc2cc1OCCCN1CCOCC1 [Foretinib] (partner 0.25 µM)
In short: as §1

Imatinib + Pemetrexed = compound: Cc1ccc(NC(=O)c2ccc(CN3CCN(C)CC3)cc2)cc1Nc1nccc(-c2cccnc2)n1 [Imatinib] + Nc1nc2[nH]cc(CCc3ccc(C(=O)N[C@@H](CCC(=O)O)C(=O)O)cc3)c2c(=O)[nH]1 [Pemetrexed] (partner 0.2 µM)
In short: as §1

Imatinib + Bortezomib = compound: Cc1ccc(NC(=O)c2ccc(CN3CCN(C)CC3)cc2)cc1Nc1nccc(-c2cccnc2)n1 [Imatinib] + CC(C)C[C@H](NC(=O)[C@H](Cc1ccccc1)NC(=O)c1cnccn1)B(O)O [Bortezomib] (partner 0.002 µM)
In short: as §1

Imatinib + OSI-027 = compound: Cc1ccc(NC(=O)c2ccc(CN3CCN(C)CC3)cc2)cc1Nc1nccc(-c2cccnc2)n1 [Imatinib] + COc1cccc2cc(-c3nc([C@H]4CC[C@H](C(=O)O)CC4)n4ncnc(N)c34)[nH]c12 [OSI-027] (partner 0.5 µM)
In short: as §1

Imatinib + Crizotinib = compound: Cc1ccc(NC(=O)c2ccc(CN3CCN(C)CC3)cc2)cc1Nc1nccc(-c2cccnc2)n1 [Imatinib] + C[C@@H](Oc1cc(-c2cnn(C3CCNCC3)c2)cnc1N)c1c(Cl)ccc(F)c1Cl [Crizotinib] (partner 1 µM)
In short: as §1

Imatinib + Luminespib = compound: Cc1ccc(NC(=O)c2ccc(CN3CCN(C)CC3)cc2)cc1Nc1nccc(-c2cccnc2)n1 [Imatinib] + CCNC(=O)c1noc(-c2cc(C(C)C)c(O)cc2O)c1-c1ccc(CN2CCOCC2)cc1 [Luminespib] (partner 0.01 µM)
In short: as §1

Imatinib + Dasatinib = compound: Cc1ccc(NC(=O)c2ccc(CN3CCN(C)CC3)cc2)cc1Nc1nccc(-c2cccnc2)n1 [Imatinib] + Cc1nc(Nc2ncc(C(=O)Nc3c(C)cccc3Cl)s2)cc(N2CCN(CCO)CC2)n1 [Dasatinib] (partner 0.075 µM)
In short: as §1

## A549
Imatinib + Phenformin; first compound 0.02 µM
  relative viability: 0.178
Imatinib + Phenformin; first compound 0.2 µM
  relative viability: 0.154
Imatinib + Phenformin; first compound 0.6325 µM
  relative viability: 0.159
Imatinib + Phenformin; first compound 2 µM
  relative viability: 0.135
Imatinib + Linsitinib; first compound 0.02 µM
  relative viability: 0.673
Imatinib + Linsitinib; first compound 0.2 µM
  relative viability: 0.636
Imatinib + Linsitinib; first compound 0.6325 µM
  relative viability: 0.699
Imatinib + Linsitinib; first compound 2 µM
  relative viability: 0.753
Imatinib + Decitabine; first compound 0.02 µM
  relative viability: 0.287
Imatinib + Decitabine; first compound 0.2 µM
  relative viability: 0.355
Imatinib + Decitabine; first compound 0.6325 µM
  relative viability: 0.32
Imatinib + Decitabine; first compound 2 µM
  relative viability: 0.222
Imatinib + Pictilisib; first compound 0.02 µM
  relative viability: 0.729
Imatinib + Pictilisib; first compound 0.06325 µM
  relative viability: 0.703
Imatinib + Pictilisib; first compound 0.2 µM
  relative viability: 0.545
Imatinib + Pictilisib; first compound 0.6325 µM
  relative viability: 0.553
Imatinib + Pictilisib; first compound 2 µM
  relative viability: 0.466
Imatinib + Alpelisib; first compound 0.02 µM
  relative viability: 0.793
Imatinib + Alpelisib; first compound 0.06325 µM
  relative viability: 0.841
Imatinib + Alpelisib; first compound 0.6325 µM
  relative viability: 0.722
Imatinib + Alpelisib; first compound 2 µM
  relative viability: 0.949
Imatinib + Navitoclax; first compound 0.02 µM
  relative viability: 1.31
Imatinib + Navitoclax; first compound 0.06325 µM
  relative viability: 1.53
Imatinib + Navitoclax; first compound 0.2 µM
  relative viability: 1.55
Imatinib + Navitoclax; first compound 0.6325 µM
  relative viability: 1.18
Imatinib + Navitoclax; first compound 2 µM
  relative viability: 1.17
Imatinib + Lapatinib; first compound 0.02 µM
  relative viability: 1.09
Imatinib + Lapatinib; first compound 0.06325 µM
  relative viability: 1.13
Imatinib + Lapatinib; first compound 0.2 µM
  relative viability: 1.11
Imatinib + Lapatinib; first compound 0.6325 µM
  relative viability: 1.07
Imatinib + Lapatinib; first compound 2 µM
  relative viability: 0.99
Imatinib + Olaparib; first compound 0.02 µM
  relative viability: 0.472
Imatinib + Olaparib; first compound 0.2 µM
  relative viability: 0.299
Imatinib + Olaparib; first compound 0.6325 µM
  relative viability: 0.307
Imatinib + Olaparib; first compound 2 µM
  relative viability: 0.42
Imatinib; 0.02 µM
  relative viability: 1
Imatinib; 0.06325 µM
  relative viability: 0.846
Imatinib; 0.2 µM
  relative viability: 1.19
Imatinib; 0.6325 µM
  relative viability: 0.973
Imatinib; 2 µM
  relative viability: 0.99

## NCI-H1563
Imatinib + Phenformin; first compound 0.02 µM
  relative viability: 0.634
Imatinib + Phenformin; first compound 0.06325 µM
  relative viability: 0.648
Imatinib + Phenformin; first compound 0.2 µM
  relative viability: 0.658
Imatinib + Phenformin; first compound 0.6325 µM
  relative viability: 0.607
Imatinib + Phenformin; first compound 2 µM
  relative viability: 0.625
Imatinib + Linsitinib; first compound 0.02 µM
  relative viability: 1.15
Imatinib + Linsitinib; first compound 0.06325 µM
  relative viability: 1.31
Imatinib + Linsitinib; first compound 0.2 µM
  relative viability: 1.22
Imatinib + Linsitinib; first compound 0.6325 µM
  relative viability: 1.25
Imatinib + Linsitinib; first compound 2 µM
  relative viability: 1.16
Imatinib + Foretinib; first compound 0.02 µM
  relative viability: 0.924
Imatinib + Foretinib; first compound 0.2 µM
  relative viability: 0.902
Imatinib + Foretinib; first compound 0.6325 µM
  relative viability: 0.845
Imatinib + Foretinib; first compound 2 µM
  relative viability: 0.925
Imatinib + Pemetrexed; first compound 0.02 µM
  relative viability: 0.861
Imatinib + Pemetrexed; first compound 0.06325 µM
  relative viability: 0.678
Imatinib + Pemetrexed; first compound 0.2 µM
  relative viability: 0.787
Imatinib + Pemetrexed; first compound 0.6325 µM
  relative viability: 0.772
Imatinib + Pemetrexed; first compound 2 µM
  relative viability: 0.631
Imatinib + Pictilisib; first compound 0.02 µM
  relative viability: 0.662
Imatinib + Pictilisib; first compound 0.06325 µM
  relative viability: 0.537
Imatinib + Pictilisib; first compound 0.2 µM
  relative viability: 0.634
Imatinib + Pictilisib; first compound 0.6325 µM
  relative viability: 0.605
Imatinib + Pictilisib; first compound 2 µM
  relative viability: 0.589
Imatinib + Bortezomib; first compound 0.02 µM
  relative viability: 0.885
Imatinib + Bortezomib; first compound 0.06325 µM
  relative viability: 0.789
Imatinib + Bortezomib; first compound 0.2 µM
  relative viability: 0.889
Imatinib + Bortezomib; first compound 0.6325 µM
  relative viability: 0.809
Imatinib + Bortezomib; first compound 2 µM
  relative viability: 0.86
Imatinib + OSI-027; first compound 0.02 µM
  relative viability: 0.825
Imatinib + OSI-027; first compound 0.06325 µM
  relative viability: 0.803
Imatinib + OSI-027; first compound 0.2 µM
  relative viability: 0.774
Imatinib + OSI-027; first compound 0.6325 µM
  relative viability: 0.743
Imatinib + OSI-027; first compound 2 µM
  relative viability: 0.731
Imatinib + Alpelisib; first compound 0.02 µM
  relative viability: 0.966
Imatinib + Alpelisib; first compound 0.06325 µM
  relative viability: 0.931
Imatinib + Alpelisib; first compound 0.2 µM
  relative viability: 1.03
Imatinib + Alpelisib; first compound 0.6325 µM
  relative viability: 0.934
Imatinib + Alpelisib; first compound 2 µM
  relative viability: 0.895
Imatinib + Crizotinib; first compound 0.02 µM
  relative viability: 0.823
Imatinib + Crizotinib; first compound 0.06325 µM
  relative viability: 0.884
Imatinib + Crizotinib; first compound 0.2 µM
  relative viability: 0.863
Imatinib + Crizotinib; first compound 0.6325 µM
  relative viability: 0.884
Imatinib + Crizotinib; first compound 2 µM
  relative viability: 0.825
Imatinib + Luminespib; first compound 0.02 µM
  relative viability: 0.486
Imatinib + Luminespib; first compound 0.06325 µM
  relative viability: 0.537
Imatinib + Luminespib; first compound 0.2 µM
  relative viability: 0.545
Imatinib + Luminespib; first compound 0.6325 µM
  relative viability: 0.496
Imatinib + Luminespib; first compound 2 µM
  relative viability: 0.471
Imatinib + Dasatinib; first compound 0.02 µM
  relative viability: 0.458
Imatinib + Dasatinib; first compound 0.06325 µM
  relative viability: 0.523
Imatinib + Dasatinib; first compound 0.2 µM
  relative viability: 0.457
Imatinib + Dasatinib; first compound 0.6325 µM
  relative viability: 0.421
Imatinib + Dasatinib; first compound 2 µM
  relative viability: 0.448
Imatinib + Lapatinib; first compound 0.02 µM
  relative viability: 1.01
Imatinib + Lapatinib; first compound 0.06325 µM
  relative viability: 0.699
Imatinib + Lapatinib; first compound 0.2 µM
  relative viability: 0.98
Imatinib + Lapatinib; first compound 0.6325 µM
  relative viability: 0.869
Imatinib; 0.06325 µM
  relative viability: 0.912
Imatinib; 0.2 µM
  relative viability: 1.11
Imatinib; 0.6325 µM
  relative viability: 0.963
Imatinib; 2 µM
  relative viability: 0.976
